# Assay results: ChEMBL document CHEMBL3885881, “DrugMatrix”
# Species: Rattus norvegicus
# Experiment: DrugMatrix - Regimen: Daily Repeat
# Format: toxicity, organism-based, Sprague-Dawley
# Design: regimen Daily Repeat, gender Male, age 6-8 weeks
# Conditions: in vivo, po, route oral GAVAGE, […]; for ABSOLUTE BASOPHIL / ABSOLUTE EOSINOPHIL / ABSOLUTE LYMPHOCYTE / ABSOLUTE MONOCYTE / ABSOLUTE SEGMENTED NEUTROPHIL / BASOPHIL / EOSINOPHIL / ERYTHROCYTE COUNT / HEMATOCRIT / HEMOGLOBIN / LEUKOCYTE COUNT / LYMPHOCYTE / MEAN CORPUSCULAR HEMOGLOBIN / MEAN CORPUSCULAR HEMOGLOBIN CONCENTRATION / MEAN CORPUSCULAR VOLUME / MONOCYTE / NEUTROPHIL / NUCLEATED RED BLOOD CELLS / PLATELET COUNT: tissue Blood; for ALANINE AMINOTRANSFERASE / ALBUMIN / ALKALINE PHOSPHATASE / ASPARTATE AMINOTRANSFERASE / BLOOD UREA NITROGEN / CARBON DIOXIDE / CHLORIDE / CHOLESTEROL / CREATINE PHOSPHOKINASE / CREATININE / GLUCOSE / LACTATE DEHYDROGENASE / LIPASE / PHOSPHORUS / POTASSIUM / SODIUM / TOTAL BILIRUBIN / TOTAL PROTEIN / URIC ACID: tissue Plasma
# [1] = 0 mg/kg, 72 h, dose level Control, time 3 day
# [2] = 0 mg/kg, 120 h, dose level Control, time 5 day
# [3] = 1 mg/kg, 72 h, dose level Low, time 3 day
compound,measurement,setting,value
CCOC(=O)C1=C(C)NC(C)=C(C(=O)OCC)C1c1ccccc1/C=C/C(=O)OC(C)(C)C [LACIDIPINE],ABSOLUTE BASOPHIL,[1],0 CELLS/uL
same,ABSOLUTE EOSINOPHIL,[1],13.67 CELLS/uL
same,ABSOLUTE LYMPHOCYTE,[1],10069.5 CELLS/uL
same,ABSOLUTE MONOCYTE,[1],50 CELLS/uL
same,ABSOLUTE SEGMENTED NEUTROPHIL,[1],516.83 CELLS/uL
same,BASOPHIL,[1],0%
same,EOSINOPHIL,[1],0.17%
same,ERYTHROCYTE COUNT,[1],5.44 x10E6/uL
same,HEMATOCRIT,[1],33.88%
same,HEMOGLOBIN,[1],13.23 G/DL
same,LEUKOCYTE COUNT,[1],10.65 x10E3/uL
same,LYMPHOCYTE,[1],94.67%
same,MEAN CORPUSCULAR HEMOGLOBIN,[1],24.37 pg
same,MEAN CORPUSCULAR HEMOGLOBIN CONCENTRATION,[1],39.05 G/DL
same,MEAN CORPUSCULAR VOLUME,[1],62.38 fL
same,MONOCYTE,[1],0.67%
same,NEUTROPHIL,[1],4.5%
same,NUCLEATED RED BLOOD CELLS,[1],0.33 /100WBC
same,PLATELET COUNT,[1],414.5 x10E3/uL
same,ALANINE AMINOTRANSFERASE,[1],72 u/L
same,ALBUMIN,[1],3.75 G/DL
same,ALKALINE PHOSPHATASE,[1],375 u/L
same,ASPARTATE AMINOTRANSFERASE,[1],87.5 u/L
same,BLOOD UREA NITROGEN,[1],14 mg/dL
same,CARBON DIOXIDE,[1],27.5 mmol/L
same,CHLORIDE,[1],95.83 MEQ/L
same,CHOLESTEROL,[1],68.5 mg/dL
same,CREATINE PHOSPHOKINASE,[1],284.33 u/L
same,CREATININE,[1],0.16 mg/dL
same,GLUCOSE,[1],156.67 mg/dL
same,LACTATE DEHYDROGENASE,[1],101.83 u/L
same,LIPASE,[1],9.67 u/L
same,PHOSPHORUS,[1],10.33 mg/dL
same,POTASSIUM,[1],5.22 MEQ/L
same,SODIUM,[1],137.67 MEQ/L
same,TOTAL BILIRUBIN,[1],0.13 mg/dL
same,TOTAL PROTEIN,[1],5.43 G/DL
same,URIC ACID,[1],0.8 mg/dL
same,ABSOLUTE BASOPHIL,[2],0 CELLS/uL
same,ABSOLUTE EOSINOPHIL,[2],20.67 CELLS/uL
same,ABSOLUTE LYMPHOCYTE,[2],11518.33 CELLS/uL
same,ABSOLUTE MONOCYTE,[2],47 CELLS/uL
same,ABSOLUTE SEGMENTED NEUTROPHIL,[2],614 CELLS/uL
same,BASOPHIL,[2],0%
same,EOSINOPHIL,[2],0.17%
same,ERYTHROCYTE COUNT,[2],5.61 x10E6/uL
same,HEMATOCRIT,[2],34.25%
same,HEMOGLOBIN,[2],13.38 G/DL
same,LEUKOCYTE COUNT,[2],12.2 x10E3/uL
same,LYMPHOCYTE,[2],94.33%
same,MEAN CORPUSCULAR HEMOGLOBIN,[2],23.83 pg
same,MEAN CORPUSCULAR HEMOGLOBIN CONCENTRATION,[2],39.08 G/DL
same,MEAN CORPUSCULAR VOLUME,[2],61.03 fL
same,MONOCYTE,[2],0.33%
same,NEUTROPHIL,[2],5.17%
same,NUCLEATED RED BLOOD CELLS,[2],0 /100WBC
same,PLATELET COUNT,[2],941.83 x10E3/uL
same,ALANINE AMINOTRANSFERASE,[2],68.83 u/L
same,ALBUMIN,[2],4.12 G/DL
same,ALKALINE PHOSPHATASE,[2],492.67 u/L
same,ASPARTATE AMINOTRANSFERASE,[2],83.33 u/L
same,BLOOD UREA NITROGEN,[2],14 mg/dL
same,CARBON DIOXIDE,[2],37 mmol/L
same,CHLORIDE,[2],98.67 MEQ/L
same,CHOLESTEROL,[2],56.5 mg/dL
same,CREATINE PHOSPHOKINASE,[2],167.33 u/L
same,CREATININE,[2],0.17 mg/dL
same,GLUCOSE,[2],157.5 mg/dL
same,LACTATE DEHYDROGENASE,[2],104.83 u/L
same,LIPASE,[2],10 u/L
same,PHOSPHORUS,[2],10.43 mg/dL
same,POTASSIUM,[2],5.46 MEQ/L
same,SODIUM,[2],143.87 MEQ/L
same,TOTAL BILIRUBIN,[2],0.17 mg/dL
same,TOTAL PROTEIN,[2],5.72 G/DL
same,URIC ACID,[2],0.85 mg/dL
same,ABSOLUTE BASOPHIL,[3],0 CELLS/uL
same,ABSOLUTE EOSINOPHIL,[3],98 CELLS/uL
same,ABSOLUTE LYMPHOCYTE,[3],10170.33 CELLS/uL
same,ABSOLUTE MONOCYTE,[3],49.33 CELLS/uL
same,ABSOLUTE SEGMENTED NEUTROPHIL,[3],815.67 CELLS/uL
same,BASOPHIL,[3],0%
same,EOSINOPHIL,[3],0.67%
same,ERYTHROCYTE COUNT,[3],5.08 x10E6/uL
same,HEMATOCRIT,[3],32.6%
same,HEMOGLOBIN,[3],13 G/DL
same,LEUKOCYTE COUNT,[3],11.13 x10E3/uL
same,LYMPHOCYTE,[3],91%
same,MEAN CORPUSCULAR HEMOGLOBIN,[3],25.63 pg
same,MEAN CORPUSCULAR HEMOGLOBIN CONCENTRATION,[3],39.9 G/DL
same,MEAN CORPUSCULAR VOLUME,[3],64.17 fL
same,MONOCYTE,[3],0.67%
same,NEUTROPHIL,[3],7.67%
same,NUCLEATED RED BLOOD CELLS,[3],0 /100WBC
same,PLATELET COUNT,[3],968 x10E3/uL
same,ALANINE AMINOTRANSFERASE,[3],76 u/L
same,ALBUMIN,[3],3.93 G/DL
same,ALKALINE PHOSPHATASE,[3],408.67 u/L
same,ASPARTATE AMINOTRANSFERASE,[3],89 u/L
same,BLOOD UREA NITROGEN,[3],12.33 mg/dL
same,CARBON DIOXIDE,[3],25 mmol/L
same,CHLORIDE,[3],96.67 MEQ/L
same,CHOLESTEROL,[3],78 mg/dL
same,CREATINE PHOSPHOKINASE,[3],356.67 u/L
same,CREATININE,[3],0.21 mg/dL
same,GLUCOSE,[3],154.33 mg/dL
same,LACTATE DEHYDROGENASE,[3],122.67 u/L
same,LIPASE,[3],12 u/L
same,PHOSPHORUS,[3],9.57 mg/dL
same,POTASSIUM,[3],5.36 MEQ/L
same,SODIUM,[3],139.33 MEQ/L
same,TOTAL BILIRUBIN,[3],0.13 mg/dL
same,TOTAL PROTEIN,[3],5.4 G/DL
same,URIC ACID,[3],0.5 mg/dL
